Test results taken from publication PMC9503977, “Isolation, Characterization and Pharmacological Investigations of a New Phenolic Compound along with Four Others Firstly Reported Phytochemicals from Glycosmis cyanocarpa (Blume) Spreng” (Molecules, 2022).
Values after ≈ are worked out from the molar mass of the structure shown. “Also recorded” adds a separate entry of the source.

Legend:
Salmonella typhi = assay: Disc diffusion antibacterial assay; assay type: cell-based; details: Salmonella enterica, read-out: Diameter of Zone of Inhibition
Staphylococcus aureus = assay: Disc diffusion antibacterial assay; details: read-out: Diameter of Zone of Inhibition
Sarcina lutea = assay: Disc diffusion antibacterial assay; details: Micrococcus luteus, read-out: Diameter of Zone of Inhibition
Klebsiella spp. = assay: Disc diffusion antibacterial assay; details: read-out: Diameter of Zone of Inhibition
Escherichia coli = assay: Disc diffusion antibacterial assay; details: read-out: Diameter of Zone of Inhibition
Shigella flexneri = assay: microbe, parasite or virus in culture; details: read-out: Diameter of Zone of Inhibition
[1] = DPPH free radical scavenging assay; assay type: biochemical; details: for DPPH scavenging activity: at 200 μg/mL; for IC50, DPPH free radical scavenging: from linear regression equation, 200 to 0.78125 μg/mL, 1 h in dark
Protocol: To evaluate the free radical scavenging abilities of isolated phytochemicals on 1, 1-diphenyl-2-picrylhydrazyl, 2.0 mL of methanol solution of the compounds at serially diluted various concentrations (200 μg/mL to 0.78125 μg/mL) were mixed with 3.0 mL of a DPPH methanol solution (20 μg/mL) (DPPH). The mixture was kept in dark for 1 h. The antioxidant properties were assessed by comparing the decolorizing of a purple DPPH methanol solution by the compounds to that of butylated hydroxy anisole (BHA). (1) % Inhibition of free radical DPPH=1−Absorbance ofsample/Absorbance of the control reaction×100

[2] = Brine shrimp lethality bioassay (cytotoxicity); details: in vivo, other: exposure of nauplii in simulated seawater, pH 8, from linear regression, 400–0.78125 μg/mL
Protocol: The brine shrimp lethality bioassay was conducted to evaluate the cytotoxic potential of the isolated pure compounds. An amount of 38 g of NaCl salt was dissolved in 1000 mL of distilled water to simulate seawater, along with NaOH to keep the pH constant (8.0). Brine shrimp eggs were hatched in artificial seawater to produce nauplii. Isolated compounds were dissolved in DMSO then diluted with simulated seawater into a series of concentrations (400–0.78125 μg/mL). As the reference standard, vincristine sulfate was employed at various doses (400–0.78125 μg/mL), and DMSO served as the negative control. The nauplii were counted visually, and then 5 mL of simulated saltwater was added to vials of the mixture at room temperature. (2) Mortality%=Number of nauplii death/Number of nauplii taken×100

[3] = system: two Gram-positive and four Gram-negative bacteria; assay: Disc diffusion antibacterial assay, whole panel; assay type: cell-based; details: 100 μg/disc

`CC[C@H]1OC(=O)[C@H](C)[C@@H](O[C@H]2C[C@@](C)(OC)[C@@H](O)[C@H](C)O2)[C@H](C)[C@@H](O[C@@H]2O[C@H](C)C[C@H](N(C)C)[C@H]2O)[C@](C)(O)C[C@@H](C)CN(C)[C@H](C)[C@@H](O)[C@]1(C)O` [Azithromycin] gave a zone of inhibition at 100 µg/disc (Salmonella typhi) of 34 mm, a zone of inhibition at 100 µg/disc (Staphylococcus aureus) of 39 mm and a zone of inhibition at 100 µg/disc (Sarcina lutea) of 40 mm. For the same compound, the zone of inhibition at 100 µg/disc (Klebsiella spp.) was 37 mm, the zone of inhibition at 100 µg/disc (Escherichia coli) was 40 mm and the zone of inhibition at 100 µg/disc (Shigella flexneri) was 41 mm.

In the case of `Cc1cc(C(C)(C)C)c(O)c(C(C)(C)C)c1` [BHT, Butylated Hydroxytoluene], the DPPH scavenging activity [1] is reported as 96.48% and the “IC50, DPPH free radical scavenging” value [1] is reported as 6.06 µg/mL (≈ 27.5 µM).

In the case of `COc1cc(CC(C)CO)ccc1O` (stereo not drawn) [Compound 1, 4-(3-hydroxy-2-methylpropyl)-2-methoxyphenol], the DPPH scavenging activity [1] is reported as 92.96%, the “IC50, DPPH free radical scavenging” value [1] is reported as 9.97 µg/mL (≈ 50.8 µM) and the LC50 [2] is reported as 1.08 µg/mL (≈ 5.5 µM). For the same compound, the zone of inhibition at 100 µg/disc (Salmonella typhi) was 18 mm, the “antibacterial spectrum (in words)” value [3] was “broad-spectrum antibacterial activity” and the zone of inhibition at 100 µg/disc (Staphylococcus aureus) was 21 mm. For the same compound, the zone of inhibition at 100 µg/disc (Sarcina lutea) was 20 mm and the zone of inhibition at 100 µg/disc (Escherichia coli) was 19 mm.

For `Cc1c[nH]c2ccccc12` [Compound 2, 3-methyl-1H-indole], the “IC50, DPPH free radical scavenging” value [1] was 12.37 µg/mL (≈ 94.3 µM), the LC50 [2] was 1.02 µg/mL (≈ 7.78 µM) and the “antibacterial spectrum (in words)” value [3] was “the most active against Staphylococcus aureus; also recorded: inhibited only Gram-positive bacteria”. For the same compound, the zone of inhibition at 100 µg/disc (Staphylococcus aureus) was 17 mm and the zone of inhibition at 100 µg/disc (Sarcina lutea) was 19 mm.

For `CC[C@H](/C=C/[C@@H](C)[C@H]1CC[C@H]2[C@@H]3CC=C4C[C@@H](O)CC[C@]4(C)[C@H]3CC[C@]12C)C(C)C` [Compound 4, Stigmasterol], the LC50 [2] was 1.92 µg/mL (≈ 4.65 µM), the “antibacterial spectrum (in words)” value [3] was “inhibited only Gram-positive bacteria” and the zone of inhibition at 100 µg/disc (Staphylococcus aureus) was 16 mm. It also gave a zone of inhibition at 100 µg/disc (Sarcina lutea) of 17 mm.

With `CC[C@H](CC[C@@H](C)[C@H]1CC[C@H]2[C@@H]3CC=C4C[C@@H](O)CC[C@]4(C)[C@H]3CC[C@]12C)C(C)C` [Compound 5, β-sitosterol] the LC50 [2] was 1.37 µg/mL (≈ 3.3 µM), the “antibacterial spectrum (in words)” value [3] was “inhibited only Gram-positive bacteria” and the zone of inhibition at 100 µg/disc (Staphylococcus aureus) was 17 mm. The zone of inhibition at 100 µg/disc (Sarcina lutea) was 15 mm.

Work on `C[C@H]1COc2c(N3CCN(C)CC3)c(F)cc3c(=O)c(C(=O)O)cn1c23` [Levofloxacin] yielded a zone of inhibition at 100 µg/disc (Salmonella typhi) of 36 mm, a zone of inhibition at 100 µg/disc (Staphylococcus aureus) of 40 mm and a zone of inhibition at 100 µg/disc (Sarcina lutea) of 39 mm. The zone of inhibition at 100 µg/disc (Klebsiella spp.) was 38 mm, the zone of inhibition at 100 µg/disc (Escherichia coli) was 42 mm and the zone of inhibition at 100 µg/disc (Shigella flexneri) was 41 mm.

`CN(C)[C@@H]1C(O)=C(C(N)=O)C(=O)[C@@]2(O)C(O)=C3C(=O)c4c(O)cccc4[C@@](C)(O)[C@H]3C[C@@H]12` [Tetracycline] showed a zone of inhibition at 100 µg/disc (Salmonella typhi) of 41 mm, a zone of inhibition at 100 µg/disc (Staphylococcus aureus) of 37 mm and a zone of inhibition at 100 µg/disc (Sarcina lutea) of 38 mm. It also gave a zone of inhibition at 100 µg/disc (Klebsiella spp.) of 39 mm, a zone of inhibition at 100 µg/disc (Escherichia coli) of 41 mm and a zone of inhibition at 100 µg/disc (Shigella flexneri) of 38 mm.

In the case of `CC[C@]1(O)C[C@H]2CN(CCc3c([nH]c4ccccc34)[C@@](C(=O)OC)(c3cc4c(cc3OC)N(C=O)[C@H]3[C@@](O)(C(=O)OC)[C@H](OC(C)=O)[C@]5(CC)C=CCN6CC[C@]43[C@@H]65)C2)C1` [VS, Vincristine Sulphate], the LC50 [2] is reported as 0.91 µg/mL.

For `CN[C@H](CC(C)C)C(=O)N[C@H]1C(=O)N[C@@H](CC(N)=O)C(=O)N[C@H]2C(=O)N[C@H]3C(=O)N[C@H](C(=O)N[C@H](C(=O)O)c4cc(O)cc(O)c4-c4cc3ccc4O)[C@H](O)c3ccc(c(Cl)c3)Oc3cc2cc(c3O[C@@H]2O[C@H](CO)[C@@H](O)[C@H](O)[C@H]2O[C@H]2C[C@](C)(N)[C@H](O)[C@H](C)O2)Oc2ccc(cc2Cl)[C@H]1O` [Vancomycin], the zone of inhibition at 100 µg/disc (Salmonella typhi) was 39 mm, the zone of inhibition at 100 µg/disc (Staphylococcus aureus) was 41 mm and the zone of inhibition at 100 µg/disc (Sarcina lutea) was 42 mm. It also gave a zone of inhibition at 100 µg/disc (Klebsiella spp.) of 43 mm, a zone of inhibition at 100 µg/disc (Escherichia coli) of 42 mm and a zone of inhibition at 100 µg/disc (Shigella flexneri) of 38 mm.
